Source: patent US9062124B2, “GIP-based mixed agonists for treatment of metabolic disorders and obesity” (priority 2008, dated 2015)
Where a SMILES comes first, the peptide text is derived from it. Bridges are numbered along the chain shown (N, C = ends).

Columns and labels:
Format in all cases: cell-based
glucagon receptor = biological target: T1, glucagon receptor (Homo sapiens, UniProt P47871); test: cAMP synthesis functional assay (firefly luciferase reporter in HEK293 cells), glucagon receptor; details: Table 1; relative to the native hormone of the indicated receptor
T1 construct: expressed in transfected cells; host or cells: HEK293
T1 sequence (P47871 26-477): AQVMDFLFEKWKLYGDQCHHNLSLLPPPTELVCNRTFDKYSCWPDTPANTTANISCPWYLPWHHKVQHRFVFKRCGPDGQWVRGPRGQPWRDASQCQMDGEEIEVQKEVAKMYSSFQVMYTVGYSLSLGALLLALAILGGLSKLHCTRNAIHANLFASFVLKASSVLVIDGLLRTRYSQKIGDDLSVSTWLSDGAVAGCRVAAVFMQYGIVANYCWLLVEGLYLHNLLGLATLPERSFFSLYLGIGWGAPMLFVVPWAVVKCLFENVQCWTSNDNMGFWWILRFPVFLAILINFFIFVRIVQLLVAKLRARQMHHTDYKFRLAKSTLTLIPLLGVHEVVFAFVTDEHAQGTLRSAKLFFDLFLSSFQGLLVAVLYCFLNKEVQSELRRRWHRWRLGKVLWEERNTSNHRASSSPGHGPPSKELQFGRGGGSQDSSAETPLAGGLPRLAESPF

GLP-1 receptor = biological target: T2, GLP-1 receptor (Homo sapiens, UniProt P43220); test: cAMP synthesis functional assay (firefly luciferase reporter in HEK293 cells), GLP-1 receptor; details: Table 1; for GLP-1 Receptor relative activity: relative to the native hormone of the indicated receptor; for EC50: GLP-1 Receptor EC50, nM
T2 construct: expressed in transfected cells; host or cells: HEK293
T2 sequence (P43220 24-463, species assumed): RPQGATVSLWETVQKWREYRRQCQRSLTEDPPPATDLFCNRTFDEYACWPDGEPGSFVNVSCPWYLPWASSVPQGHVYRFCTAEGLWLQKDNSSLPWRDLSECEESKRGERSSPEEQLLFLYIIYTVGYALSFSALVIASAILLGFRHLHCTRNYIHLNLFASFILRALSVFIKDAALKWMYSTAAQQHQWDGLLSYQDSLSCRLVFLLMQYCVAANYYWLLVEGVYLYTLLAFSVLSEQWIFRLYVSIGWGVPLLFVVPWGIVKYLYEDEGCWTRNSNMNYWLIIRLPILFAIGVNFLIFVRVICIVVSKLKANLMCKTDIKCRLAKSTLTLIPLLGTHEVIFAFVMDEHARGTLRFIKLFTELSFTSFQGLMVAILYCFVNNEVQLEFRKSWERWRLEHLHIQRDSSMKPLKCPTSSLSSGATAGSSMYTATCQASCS

GIP receptor = biological target: T3, GIP receptor (Homo sapiens, UniProt P48546); test: cAMP synthesis functional assay (firefly luciferase reporter in HEK293 cells), GIP receptor; details: Table 1; relative to the native hormone of the indicated receptor
T3 construct: expressed in transfected cells; host or cells: HEK293
T3 sequence (P48546 22-466): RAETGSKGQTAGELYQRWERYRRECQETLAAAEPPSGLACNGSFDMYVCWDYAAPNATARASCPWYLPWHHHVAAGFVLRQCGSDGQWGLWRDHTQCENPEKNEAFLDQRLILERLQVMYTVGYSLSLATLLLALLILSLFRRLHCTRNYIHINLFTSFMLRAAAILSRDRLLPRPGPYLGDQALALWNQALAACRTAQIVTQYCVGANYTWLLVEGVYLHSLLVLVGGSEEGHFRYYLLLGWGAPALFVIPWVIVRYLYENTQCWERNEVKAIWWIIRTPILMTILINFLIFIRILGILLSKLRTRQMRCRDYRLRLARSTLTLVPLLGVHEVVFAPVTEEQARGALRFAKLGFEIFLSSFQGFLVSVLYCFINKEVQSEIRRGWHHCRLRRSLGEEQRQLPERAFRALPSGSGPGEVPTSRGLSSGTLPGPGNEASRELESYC

[1] = test system: glucagon receptor, GLP-1 receptor or GIP receptor; test: Agonist profile across receptors assigned from the cAMP reporter assay data; details: assigned from the in vitro EC50 data of Tables 1-4

SMILES	Glucagon Receptor relative activity (glucagon receptor) [%]	GLP-1 Receptor relative activity (GLP-1 receptor) [%]	GIP Receptor relative activity (GIP receptor) [%]	receptor activity profile (glucagon / GLP-1 / GIP agonism) [1]	EC50 (GLP-1 receptor) [nM]
CC[C@H](C)[C@@H]1NC(=O)[C@@H](NC(=O)[C@H](CC(=O)O)NC(=O)[C@H](CC(C)C)NC(=O)[C@H](Cc2ccc(O)cc2)NC(=O)[C@H](CCCCN)NC(=O)[C@H](CO)NC(=O)[C@H](Cc2ccc(O)cc2)NC(=O)[C@H](CC(=O)O)NC(=O)[C@H](CO)NC(=O)[C@@H](NC(=O)[C@H](Cc2ccccc2)NC(=O)[C@@H](NC(=O)CNC(=O)[C@H](CCC(N)=O)NC(=O)[C@H](CO)NC(=O)[C@@H](N)Cc2ccc(O)cc2)[C@@H](C)O)[C@@H](C)O)CCC(=O)NCCCC[C@@H](C(=O)N[C@@H](CC(=O)O)C(=O)N[C@@H](Cc2ccccc2)C(=O)N[C@H](C(=O)N[C@@H](CC(N)=O)C(=O)N[C@@H](Cc2c[nH]c3ccccc23)C(=O)N[C@@H](CC(C)C)C(=O)N[C@@H](CC(C)C)C(=O)N[C@@H](C)C(=O)NCC(=O)NCC(=O)N2CCC[C@H]2C(=O)N[C@@H](CO)C(=O)N[C@@H](CO)C(=O)NCC(=O)N[C@@H](C)C(=O)N2CCC[C@H]2C(=O)N2CCC[C@H]2C(=O)N2CCC[C@H]2C(=O)N[C@@H](CO)C(N)=O)C(C)C)NC(=O)[C@H](CCC(N)=O)NC(=O)[C@H](Cc2c[nH]cn2)NC1=O [mt-116] (H-YSQGTFTSDYSKYLDEIHQKDFVNWLLAGGPSSGAPPPS-NH2; lactam 16-20; N-terminus assumed)	18.68	1.07	7.62	exemplary GIP/glucagon co-agonist peptides	
CC[C@H](C)[C@H](NC(=O)[C@H](CO)NC(=O)[C@H](Cc1ccc(O)cc1)NC(=O)[C@H](CC(=O)O)NC(=O)[C@H](CO)NC(=O)[C@@H](NC(=O)[C@H](Cc1ccccc1)NC(=O)[C@@H](NC(=O)CNC(=O)[C@H](CCC(N)=O)NC(=O)[C@H](CO)NC(=O)[C@@H](N)Cc1ccc(O)cc1)[C@@H](C)O)[C@@H](C)O)C(=O)N[C@@H](Cc1ccc(O)cc1)C(=O)N[C@@H](CC(C)C)C(=O)N[C@@H](CC(=O)O)C(=O)N[C@H]1CCC(=O)NCCCC[C@@H](C(=O)N[C@@H](CCC(=O)O)C(=O)N[C@@H](Cc2ccccc2)C(=O)N[C@H](C(=O)N[C@@H](CC(N)=O)C(=O)N[C@@H](Cc2c[nH]c3ccccc23)C(=O)N[C@@H](CC(C)C)C(=O)N[C@@H](CC(C)C)C(=O)N[C@@H](C)C(=O)NCC(=O)NCC(=O)N2CCC[C@H]2C(=O)N[C@@H](CO)C(=O)N[C@@H](CO)C(=O)NCC(=O)N[C@@H](C)C(=O)N2CCC[C@H]2C(=O)N2CCC[C@H]2C(=O)N2CCC[C@H]2C(=O)N[C@@H](CO)C(N)=O)C(C)C)NC(=O)[C@H](C)NC(=O)[C@H](C)NC(=O)[C@H](CCC(N)=O)NC1=O [mt-140] (H-YSQGTFTSDYSIYLDEQAAKEFVNWLLAGGPSSGAPPPS-NH2; lactam 16-20; N-terminus assumed)	131.15	49.56	12.85	exemplary GLP-1/GIP/glucagon triagonist peptides	
CC[C@H](C)[C@H](NC(=O)[C@H](Cc1ccccc1)NC(=O)[C@H](CCC(=O)O)NC(=O)[C@@H]1CCCCNC(=O)CC[C@H](NC(=O)[C@H](CC(=O)O)NC(=O)[C@H](CC(C)C)NC(=O)[C@H](Cc2ccc(O)cc2)NC(=O)[C@@H](NC(=O)[C@H](CO)NC(=O)[C@H](Cc2ccc(O)cc2)NC(=O)[C@H](CC(=O)O)NC(=O)[C@H](CO)NC(=O)[C@@H](NC(=O)[C@H](Cc2ccccc2)NC(=O)[C@@H](NC(=O)CNC(=O)[C@H](CCC(N)=O)NC(=O)[C@H](CO)NC(=O)[C@@H](N)Cc2ccc(O)cc2)[C@@H](C)O)[C@@H](C)O)[C@@H](C)CC)C(=O)N[C@@H](CCC(N)=O)C(=O)N[C@@H](C)C(=O)N[C@@H](C)C(=O)N1)C(=O)N[C@@H](C)C(=O)N[C@@H](Cc1c[nH]c2ccccc12)C(=O)N[C@@H](CC(C)C)C(=O)N[C@@H](CC(C)C)C(=O)N[C@@H](C)C(=O)NCC(=O)NCC(=O)N1CCC[C@H]1C(=O)N[C@@H](CO)C(=O)N[C@@H](CO)C(=O)NCC(=O)N[C@@H](C)C(=O)N1CCC[C@H]1C(=O)N1CCC[C@H]1C(=O)N1CCC[C@H]1C(=O)N[C@@H](CO)C(N)=O [mt-147] (H-YSQGTFTSDYSIYLDEQAAKEFIAWLLAGGPSSGAPPPS-NH2; lactam 16-20; N-terminus assumed)	90.52	33.87	43.06	exemplary GLP-1/GIP/glucagon triagonist peptides	
CC[C@H](C)[C@H](NC(=O)[C@H](Cc1ccccc1)NC(=O)[C@H](CCC(=O)O)NC(=O)[C@@H]1CCCCNC(=O)CC[C@H](NC(=O)[C@H](CC(=O)O)NC(=O)[C@H](CC(C)C)NC(=O)[C@H](Cc2ccc(O)cc2)NC(=O)[C@@H](NC(=O)[C@H](CO)NC(=O)[C@H](Cc2ccc(O)cc2)NC(=O)[C@H](CC(=O)O)NC(=O)[C@H](CO)NC(=O)[C@@H](NC(=O)[C@H](Cc2ccccc2)NC(=O)[C@@H](NC(=O)CNC(=O)[C@H](CCC(=O)O)NC(=O)[C@H](CO)NC(=O)[C@@H](N)Cc2ccc(O)cc2)[C@@H](C)O)[C@@H](C)O)[C@@H](C)CC)C(=O)N[C@@H](CCC(N)=O)C(=O)N[C@@H](C)C(=O)N[C@@H](C)C(=O)N1)C(=O)N[C@@H](C)C(=O)N[C@@H](Cc1c[nH]c2ccccc12)C(=O)N[C@@H](CC(C)C)C(=O)N[C@@H](CC(C)C)C(=O)N[C@@H](C)C(=O)NCC(=O)NCC(=O)N1CCC[C@H]1C(=O)N[C@@H](CO)C(=O)N[C@@H](CO)C(=O)NCC(=O)N[C@@H](C)C(=O)N1CCC[C@H]1C(=O)N1CCC[C@H]1C(=O)N1CCC[C@H]1C(=O)N[C@@H](CO)C(N)=O [mt-148] (H-YSEGTFTSDYSIYLDEQAAKEFIAWLLAGGPSSGAPPPS-NH2; lactam 16-20; N-terminus assumed)	2.14	36.22	65.26	exemplary GLP-1/GIP co-agonist peptides	0.098
CC[C@H](C)[C@H](NC(=O)[C@H](CO)NC(=O)[C@H](Cc1ccc(O)cc1)NC(=O)[C@H](CC(=O)O)NC(=O)[C@H](CO)NC(=O)[C@@H](NC(=O)[C@H](Cc1ccccc1)NC(=O)[C@@H](NC(=O)CNC(=O)[C@H](CCC(=O)O)NC(=O)[C@H](C)NC(=O)[C@@H](N)Cc1ccc(O)cc1)[C@@H](C)O)[C@@H](C)O)C(=O)N[C@@H](Cc1ccc(O)cc1)C(=O)N[C@@H](CC(C)C)C(=O)N[C@@H](CC(=O)O)C(=O)N[C@H]1CCC(=O)NCCCC[C@@H](C(=O)N[C@@H](CCC(=O)O)C(=O)N[C@@H](Cc2ccccc2)C(=O)N[C@H](C(=O)N[C@@H](CC(N)=O)C(=O)N[C@@H](Cc2c[nH]c3ccccc23)C(=O)N[C@@H](CC(C)C)C(=O)N[C@@H](CC(C)C)C(=O)N[C@@H](C)C(=O)NCC(=O)NCC(=O)N2CCC[C@H]2C(=O)N[C@@H](CO)C(=O)N[C@@H](CO)C(=O)NCC(=O)N[C@@H](C)C(=O)N2CCC[C@H]2C(=O)N2CCC[C@H]2C(=O)N2CCC[C@H]2C(=O)N[C@@H](CO)C(N)=O)C(C)C)NC(=O)[C@H](C)NC(=O)[C@H](C)NC(=O)[C@H](CCC(N)=O)NC1=O [mt-149] (H-YAEGTFTSDYSIYLDEQAAKEFVNWLLAGGPSSGAPPPS-NH2; lactam 16-20; N-terminus assumed)	0.64	97.53	91.18	exemplary GLP-1/GIP co-agonist peptides	0.036
